Laboratory results reported in paper PMC10017027, “Design and Synthesis of Novel HIV-1 NNRTIs with Bicyclic Cores and with Improved Physicochemical Properties” (Journal of Medicinal Chemistry, 2023).
≈ marks a conversion by molar mass, not a printed value. Where two headings read alike, the source gives them in different places.

Experiments:
[1] = Solubility assessment, shake-flask method; type: physicochemical; conditions: for solubility: shake-flask
Procedure: Compound solubility was measured at Analiza (Cleveland, OH) by the standard shake-flask method at pH 1.2 and 7.4 and quantitated by HPLC-UV.

in vitro = type: cell-based; conditions: human
Procedure: The prepared compounds were tested for their anti-HIV-1 activity (Table 1). A viral cytopathic effect assay in MT-4 cells with HIV-1 IIIB virus was used to determine compound potency (EC50, 50% cell viability) in protecting virus induced cell killing. Compound cytotoxicity was assessed in MT-4 cells in the absence of virus (CC50, 50% cytotoxicity). […] ETV contains bromo and amino substitutions on the DAPY core. […] Likely, with the smaller cyano arm I in 1, 3, and 5, the cores could be further elaborated to optimize the compound position in the pocket and to improve potency.
(§1) Compounds were tested in a high-throughput 384-well assay format for their ability to inhibit the virus replication-induced cytopathic effect in MT-4 cell cultures acutely infected with HIV-1 (IIIB strain), HXB2, HXB2-K103N, and HXB2-Y181C. Compounds were serially diluted (1:3) in DMSO on 384-well polypropylene plates and further diluted 200-fold into complete RPMI media (10% FBS, 1% P/S) using Biotek Micro Flow and an Agilent ECHO acoustic dispenser. Each plate contained up to eight test compounds, with negative (no drug control) and 5 μM AZT positive controls. MT-4 cells were further diluted in complete RPMI media and added to each plate using a Micro-Flo dispenser. After five days of incubation in a humidified and temperature-controlled incubator (37 °C), Cell Titer Glo (Promega) was added to the assay plates to quantify the amount of […]. EC50 and CC50 values were defined as the compound concentration that causes a 50% decrease in luminescence signal and were calculated using a sigmoidal dose-response model to generate curve fits.

HIV-1 (IIIB strain) = assay: MT-4 antiviral cytopathic effect assay, HIV-1 IIIB; type: cell-based
Procedure: (§2) The prepared compounds were tested for their anti-HIV-1 activity (Table 1). A viral cytopathic effect assay in MT-4 cells with HIV-1 IIIB virus was used to determine compound potency (EC50, 50% cell viability) in protecting virus induced cell killing. Compound cytotoxicity was assessed in MT-4 cells in the absence of virus (CC50, 50% cytotoxicity).
as §1

HIV-1 HXB2 = assay: MT-4 antiviral cytopathic effect assay, HXB2 wild-type virus; type: cell-based; conditions: Human immunodeficiency virus 1, MT4; HIV-1 HXB2 wild-type, MT-4 cells; read-out: EC50 HXB2
Procedure: as §2, §1

Cc1cc(C#N)cc(C)c1N1CC(=O)Nc2cnc(Nc3ccc(C#N)cc3)nc21 [Compound 3, 4-(2-((4-Cyanophenyl)amino)-6-oxo-6,7-dihydropteridin-8(5H)-yl)-3,5-dimethylbenzonitrile]
solubility thermodynamic ([1]; HCl, pH 1.2, supplement CSV, read-out: HCl sol): > 100 µM | solubility ([1]; HCl, pH 1.2, read-out: solubility HCl): > 100 µM | solubility ([1]; phosphate-buffered saline, pH 7.4, read-out: solubility PBS): 2.3 µM (≈ 0.909 µg/mL) | aqueous solubility ([1]; preliminary data, in words): significantly improved | PBS sol ([1]; supplement CSV): 2.3 µM | CC50 at 5 days (in vitro): > 50000 nM | EC50 (HIV-1 (IIIB strain); Human immunodeficiency virus 1, HXB2 / IIIB, range over HIV-1 IIIB and HXB2, read-out: EC50 against both wild-type viruses): 8.1 to 8.6 nM | EC50 (HIV-1 (IIIB strain); Human immunodeficiency virus 1, IIIB, MT4, protects 50% of MT-4 cells against HIV-1-induced cell killing, HIV-1 IIIB, WT, read-out: EC50 MT4): 8.6 nM | activity against the WT virus (HIV-1 (IIIB strain); preliminary biological data, in words): low nanomolar activity | EC50 (HIV-1 HXB2): 8.1 nM
